Values joined by “and” are separate entries in the source; they are usually repeats but may differ in a detail not shown here. Equal entries are not always repeated.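 Results reflect a 48-hour exposure of cells in 96-well plates to compound at five concentrations. Abbreviation: GI50, concentration required for 50% inhibition of growth. TGI denotes the concentration required for complete inhibition of growth.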

The results in this text go back to PubChem BioAssay (NCI).

What all share (experiment): NCI tumour cell line growth inhibition, 48 h
Assay [1] deals with ACHN renal.
Assay [2] relates to MOLT-4 leukemia.
Assay [3] concerns SK-MEL-2 melanoma.
The subject of assay [4] is SK-MEL-5 melanoma.
The subject of assay [5] is SK-OV-3 ovarian.
The test system of assay [6] is HCT-15 colon.
The test system of assay [7] is CCRF-CEM leukemia.
Assay [8] concerns SNB-19 CNS.
In assay [9] the test system is M14 melanoma.
Assay [10] concerns IGROV1 ovarian.

On to `NC(=NCc1ccccc1)N/N=C\c1ccnc2ccccc12`, for which the TGI in [1] came out at 32 µM; in assay [2] it was 46 µM; in assay [3], 22.1 µM; in assay [4], 20 µM; in [5], 29.7 µM; in assay [6], 37.4 µM. Besides, the results for the TGI in assay [7], in assay [8] and in assay [9] were 76.3 µM, 36.9 µM and 17.5 µM, respectively.
For `c1ccc(COc2ccc(Nc3ncnc4ccc(-c5ccco5)cc34)cc2)cc1`, the GI50 in assay [1] was 6.75 µM; in assay [10], 7.11 µM; in assay [2] it was 11.7 µM; in assay [3], 9.68 µM; in [4], 2.96 µM; in [5], 0.994 µM. Besides, the GI50 is 4.3 µM in assay [6], 7.76 µM in [7], 12.7 µM in [8] and 7.31 µM in [9]. In addition, the TGI in [1] is above 25 µM; in [10], above 23.1 µM; in assay [2], above 25 µM; in assay [3], 24.6 µM; in [4], 6.79 µM; in assay [5], 8.16 µM. In addition, the TGI in assay [6] is 12.3 µM; in assay [7], above 25 µM; in [8], above 25 µM; in [9], 19.9 µM.
Take `OCCC#Cc1ccccc1C#Cc1ccccc1`: the GI50 in [1] is 17.2 µM; in [10] it was 33.4 µM; in [2] it was 9.84 µM; in assay [3], 40.6 µM; in assay [4] it was 12 µM; in assay [5] it was 17.3 µM. The GI50 in [6] is 11.6 µM; in [7], 25.9 µM; in [8], 28.1 µM; in assay [9], 16 µM. The TGI in [1] is 36.4 µM; in [10], above 100 µM; in [2] it was 51.9 µM; in assay [3] it was above 100 µM; in assay [4], 25.3 µM; in [5], 39.4 µM. The TGI was 24.8 µM in assay [6], above 100 µM in [7], above 100 µM in assay [8] and 31.6 µM in [9].
For `Cn1cc(-c2ccc3c(c2)ncn3-c2ccc(CC(=O)Nc3cc(C(C)(C)C)on3)cc2)cn1`, the GI50 was 0.405 µM in [1]; 0.235 µM in assay [10]; 1.58 µM in assay [2]; 1.99 µM in assay [3]; 2.5 µM in assay [4]; 1.01 µM in [5]. For the same compound, the GI50 was 1.19 µM in assay [6], 3.23 µM in assay [7], 3.5 µM in assay [8] and 1.1 µM in assay [9]. The TGI is 10.9 µM in [1]; 1.31 µM in assay [10]; above 100 µM in assay [2]; 5.14 µM in assay [3]; 15.5 µM in [4]; 4.33 µM in assay [5]. Moreover, the TGI in [6] was above 40.9 µM; in assay [7], above 100 µM; in [8], above 100 µM; in [9], 10.5 µM.
For `Nc1cc2c3c(cccc3c1)C(=O)N(CCN1CCN(CCN3C(=O)c4cccc5cc(N)cc(c45)C3=O)CC1)C2=O`, the TGI in assay [1], in [10], in assay [2], in assay [3], in assay [4] and in assay [5] was above 100 µM in each case. For the same compound, the TGI in assay [6], in [7], in assay [8] and in [9] was above 100 µM throughout.
`CCN=C(N)CSS(=O)(=O)O`: the TGI in assay [1], in assay [10], in [2], in assay [3], in assay [4] and in assay [5] was above 100 µM each time. The TGI in assay [6], in assay [7], in [8] and in [9] was above 100 µM throughout.
On to `COC(=O)C12C3C=CC(O3)C1C1C=CC2O1` (configuration not stated), for which the TGI in assay [1], in [10], in [2], in assay [3], in assay [4] and in [5] was above 100 µM throughout. Further, the TGI in [6], in assay [7], in [8] and in assay [9] was above 100 µM each time.
Regarding `CCN1C(=O)N(CC)C2C1NN=c1s/c(=C\c3ccc([N+](=O)[O-])cc3)c(=O)n12` (configuration not stated), the GI50 was 0.587 µM in assay [1]; 0.977 µM in assay [10]; 0.577 µM in assay [2]; 1.16 µM in assay [3]; 0.343 µM in [4]; 0.698 µM in assay [5]. Further, the GI50 in [6] is 0.394 µM; in assay [7] it was 0.411 µM; in [8] it was 0.683 µM; in assay [9], 0.401 µM. In addition, the TGI in assay [1] is above 100 µM; in assay [10] it was above 32.9 µM; in [2] it was above 100 µM; in [3] it was above 100 µM; in assay [4], 12.1 µM; in assay [5], 49.5 µM. The TGI in assay [6] was above 100 µM; in assay [7], above 46.7 µM; in assay [8] it was above 84.3 µM; in assay [9], above 43 µM.
For the compound `Cc1ccc(NC(=O)CCC(=O)C2CC(=O)CCC2=O)cc1C` (configuration not stated), the TGI in assay [1], in [10], in assay [2], in assay [3], in [4] and in assay [5] was above 100 µM throughout. The TGI in assay [6], in [7], in assay [8] and in assay [9] was above 100 µM each time.
For the compound `COC(=O)C1(C)CCc2c(ccc3ccccc23)C1=O` (configuration not stated), the TGI is above 100 µM in [1]; 95.7 µM in assay [10]; above 100 µM in assay [2]; 64.8 µM in assay [3]; 35.9 µM in assay [4]; above 100 µM in assay [5]. For the same compound, the TGI was above 100 µM in [6], above 100 µM in [7], above 100 µM in assay [8] and 83.8 µM in assay [9].
In the case of `CCOC(=O)C12CN(C34CC5CC(CC(C5)C3)C4)CC(C(=O)OCC)(C1=O)C(c1ccccc1)OC2c1ccccc1` (configuration not stated), the TGI in [1], in assay [10], in assay [2], in assay [3], in [4] and in assay [5] was above 100 µM throughout. Besides, the TGI in [6], in assay [7], in [8] and in [9] was above 100 µM each time.
Regarding `NCCCNCCCNc1nc2ccccc2c2[nH]c3ccccc3c12`, the GI50 in assay [1] is 0.112 µM; in assay [10], 0.0837 µM; in assay [2] it was 0.0252 µM; in assay [3], 0.703 µM; in assay [4], 0.362 µM; in assay [5], 0.743 µM and 0.322 µM. The GI50 in assay [6] is 0.307 µM; in assay [7], 0.126 µM; in assay [8], 0.0785 µM; in assay [9], 0.672 µM. For the same compound, the TGI in [1] was 2.82 µM; in assay [10] it was 1.03 µM; in assay [2], 3.62 µM; in assay [3], 2.42 µM; in assay [4], 1.81 µM; in assay [5] it was 4.14 µM and 3.42 µM. Also, the TGI in [6] turned out to be 4.95 µM; in assay [7] it was 2.42 µM; in assay [8], 1.42 µM; in assay [9] it was 2.35 µM.
As for `C=C(CNCCc1ccc(O)cc1)[C@@H]1CC[C@]2(CO)CC[C@]3(C)[C@H](CC[C@@H]4[C@@]5(C)CCC(NCCO)C(C)(C)[C@@H]5CC[C@]43C)[C@@H]12` (some centres not stated), the GI50 in assay [1] was 1.79 µM; in [10], 1.94 µM; in [2] it was 0.657 µM; in assay [3] it was 1.79 µM; in assay [4], 1.73 µM; in [5], 1.85 µM. Moreover, the GI50 was 1.57 µM in assay [6], 0.433 µM in assay [7], 1.63 µM in [8] and 1.61 µM in [9]. The TGI was found to be 3.2 µM in assay [1]; 3.9 µM in assay [10]; 2.92 µM in [2]; 3.38 µM in assay [3]; 3.21 µM in [4]; 3.52 µM in assay [5]. In addition, the TGI in assay [6] amounted to 3.37 µM; in assay [7], 1.92 µM; in assay [8], 3.03 µM; in assay [9], 3.13 µM.
Take `Fc1cccc(C=NC23CC4CC(CC(C4)C2)C3)c1`: the TGI in assay [1], in assay [10], in assay [2], in assay [3], in assay [5] and in [6] was above 100 µM each time. Moreover, the TGI in [7], in assay [8] and in assay [9] was above 100 µM in each case.
For the compound `COC(=O)[C@@]12C3=NO[C@]1(C(=O)OC)C(O[Si](C)(C)C(C)(C)C)C1OC(C)(C)OC1[C@@H]2[C@@H](OCc1ccccc1)CC3` (some centres not stated), the TGI in [10], in assay [2], in [3], in assay [4], in assay [5] and in assay [6] was above 100 µM throughout. For the same compound, the TGI in [7], in assay [8] and in assay [9] was above 100 µM in each case.
